Test results published in patent publication US20180353501A1 (Arvinas, Inc., priority 2017, published 2018).

Molecular target: T1, FLAG-p38α (Homo sapiens, UniProt Q16539)
T1 construct: expressed in transfected cells; host or cells: HeLa
Test: Ubiquitination assay, HeLa cells co-transfected with HA-Ub and FLAG-p38α
Assay type: cell-based
Details: 500 nM, 1 hour
Protocol: FIGS. 14A, 14B, and 14C. p38α selectivity is discriminated by ternary complex formation. (A) Only p38α incubated in the presence of exemplary compound 50 can be immunoprecipitated with GST-tagged VHL/EloB/EloC (VBC). Immobilized VBC was used as a bait to trap purified p38α in the presence of vehicle (DMSO), compound 50, or compound 46 (represented in micromolar concentrations). The rightmost lane represents a 1:25 dilution of initial input protein used in each pull-down. (B) Proximity-based AlphaLISA assay detects significant p38α:compound 50:VHL ternary complex, but no p38α:compound 46:VHL ternary complex. His-p38α and GST-VBC were incubated in the presence of increasing concentrations of compound 50 and compound 46 and the extent of ternary complex formation was assessed by excitation with incident light with 1=680 nm and capture of the emission light at 1=615 nm. Error bars represent the SD from quadruplicate experiments. (C) Only exemplary compound 50 ubiquitinates FLAG-p38α in HeLa cells. […] FLAGimmunoprecipitated lysates were separated by SDS-PAGE and assessed via western blots detecting HA (Ub). […]
HeLa cells (2×10^6) were seeded into 10 cm dishes and allowed to adhere overnight. […] Lysates were spun down at 14,000×g at 4° C. for 20 minutes and protein content was measured by Pierce BCA Protein Assay (ThermoFisher Scientific). […]

T1 sequence (Q16539 whole entry): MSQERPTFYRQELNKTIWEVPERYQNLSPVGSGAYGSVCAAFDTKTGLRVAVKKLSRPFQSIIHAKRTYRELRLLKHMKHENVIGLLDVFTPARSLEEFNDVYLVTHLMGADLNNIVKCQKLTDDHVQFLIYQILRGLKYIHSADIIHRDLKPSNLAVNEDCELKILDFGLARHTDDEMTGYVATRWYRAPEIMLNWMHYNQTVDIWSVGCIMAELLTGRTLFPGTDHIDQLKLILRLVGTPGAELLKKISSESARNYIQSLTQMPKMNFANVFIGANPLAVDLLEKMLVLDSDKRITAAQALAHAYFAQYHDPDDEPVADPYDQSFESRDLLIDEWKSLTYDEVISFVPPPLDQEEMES

## COc1cc2c(Oc3ccc(NC(=O)C4(C(=O)Nc5ccc(F)cc5)CC4)cc3F)ccnc2cc1OCCOCCOCCOc1cc(-c2scnc2C)ccc1CNC(=O)[C@@H]1C[C@@H](O)CN1C(=O)[C@H](C(C)C)N1Cc2ccccc2C1=O [compound 46]
  ubiquitination of FLAG-p38α: this effect was not seen

## COc1cc2c(Oc3ccc(NC(=O)C4(C(=O)Nc5ccc(F)cc5)CC4)cc3F)ccnc2cc1OCCCCOCCCCOCC(=O)N[C@H](C(=O)N1C[C@H](O)C[C@H]1C(=O)NCc1ccc(-c2scnc2C)cc1)C(C)(C)C [compound 50, N-(3-fluoro-4-((7-(4-(4-(2-(((S)-1-((2S,4R)-4-hydroxy-2-((4-(4-methylthiazol-5-yl)benzyl)carbamoyl)pyrrolidin-1-yl)-3,3-dimethyl-1-oxobutan-2-yl)amino)-2-oxoethoxy)butoxy)buto-xy)-6-methoxyquinolin-4-yl)oxy)phenyl)-N-(4-fluorophenyl)cyclopropane-1,1-dicarboxa-mide]
  ubiquitination of FLAG-p38α: substantial ubiquitination
